{"source": "paper PMC2443153", "about": "(BMC Biochemistry, 2008)", "key": {"[1]": {"target": "T1, PKA-IIα sensor (RIIα-RLuc / GFP2-Cα) in COS-7 cells (Homo sapiens, UniProt P13861)", "T1 sequence (P13861 whole entry)": "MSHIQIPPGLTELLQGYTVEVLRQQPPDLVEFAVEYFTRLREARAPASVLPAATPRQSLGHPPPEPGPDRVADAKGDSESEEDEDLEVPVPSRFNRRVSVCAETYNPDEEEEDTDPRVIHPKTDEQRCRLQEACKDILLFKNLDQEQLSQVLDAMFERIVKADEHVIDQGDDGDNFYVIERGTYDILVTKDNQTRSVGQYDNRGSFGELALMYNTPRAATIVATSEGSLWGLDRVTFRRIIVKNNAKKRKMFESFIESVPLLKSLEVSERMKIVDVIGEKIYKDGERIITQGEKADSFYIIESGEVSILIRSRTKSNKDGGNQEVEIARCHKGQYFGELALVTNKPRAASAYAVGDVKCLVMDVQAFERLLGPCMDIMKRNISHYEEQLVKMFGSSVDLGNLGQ", "test": "BRET assay of PKA holoenzyme dissociation in living cells", "settings": "30 minutes", "quoted_text": "In this assay, a decrease in BRET signal indicates intracellular dissociation of the PKA holoenzyme [42].\nBRET signals were obtained after addition of the luciferase substrate DeepBlueC™ and detection of luciferase and fluorescence light emission using a multi-label reader. Shown is a representative experiment, repeated three times; data are mean ± S.E.M., performed with n = 6 replicates. […] Briefly, cells were co-transfected with a constant amount of BRET donor (hRIIα-Rluc) and an increasing amount of acceptor DNA (GFP^2-hCα) as indicated. […] The BRET values of two independent experiments, each performed with n = 6 replicates, were background subtracted, normalized and plotted as mean ± S.E.M.\nCOS-7 cells were used for BRET experiments. […] For the BRET read-out, the luciferase substrate DeepBlueC™ (PerkinElmer) was added at a final concentration of 5 μM in a total volume of 50 μl D-PBS. […] Control measurements with cells expressing RLuc and GFP proteins without a fusion partner yield the background BRET signal. A BRET titration (bystander BRET test) was performed by co-transfection of COS-7 cells with a constant donor-expression plasmid (0.5 μg) with an increasing amount of acceptor-expression plasmid (0–2 μg). The cells were treated as described above."}, "RIIα subunit": {"system": "RIIα subunit", "test": "Fluorescence polarization displacement of 8-Fluo-cAMP from RIIα subunit", "format": "binding, human", "settings": "2.5 nM RIIα, 1 nM 8-Fluo-cAMP", "experimental": "(§1) . Figure 3 Competitive nucleotide binding assay using fluorescence polarization. […] 2.5 nM R subunit was added and fluorescence polarization was determined at Ex485 nm/Em535 nm. […] Each data point represents the mean +/- S.E.M. from at least triplicate measurements.\n(§2) For expression of PKA regulatory subunits, one liter of Luria Broth medium containing 100 μg/ml of ampicillin was inoculated with E. coli BL21 (DE3) Codon Plus RIL cells (Stratagene) transformed with human RIα, RIβ, RIIα (in pRSETB) or rat RIIβ (in pETIIc) and grown at 37°C to an OD600 nm of 0.8. Recombinant protein expression was induced by addition of […] isopropyl-β-D-thiogalactopyranoside (IPTG) and the culture was incubated at 25°C for additional 17–18 h. The pellets were stored at -20°C.\n(§3) The fluorescence polarization displacement assay was performed as described before. […] Fluorescence polarization was measured after 5 minutes of incubation at room temperature."}, "[2]": {"test": "Retention-based lipophilicity by reversed phase HPLC (logKw)"}, "PKA-Iα holoenzyme": {"target": "T2, PKA-Iα holoenzyme (Homo sapiens, UniProt P10644)", "T2 construct": "made in house; host or cells: E. coli BL21 (DE3) / BL21 (DE3) Codon Plus RIL", "T2 sequence (P10644 whole entry)": "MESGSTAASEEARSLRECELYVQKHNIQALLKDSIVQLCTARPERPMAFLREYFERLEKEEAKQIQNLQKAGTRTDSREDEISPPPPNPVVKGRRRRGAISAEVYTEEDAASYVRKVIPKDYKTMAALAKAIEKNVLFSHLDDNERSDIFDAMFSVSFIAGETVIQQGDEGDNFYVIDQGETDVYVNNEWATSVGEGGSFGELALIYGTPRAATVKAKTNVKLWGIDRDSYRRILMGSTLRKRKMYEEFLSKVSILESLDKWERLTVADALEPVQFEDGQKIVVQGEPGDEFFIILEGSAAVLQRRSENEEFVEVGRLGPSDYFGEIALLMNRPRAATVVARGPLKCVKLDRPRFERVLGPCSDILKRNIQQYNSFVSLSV", "test": "PKA holoenzyme activation, coupled spectrophotometric kinase assay with Kemptide (RIα + Cα)", "format": "biochemical, human RIα, murine Cα", "settings": "20 nM PKA-Cα, 260 μM Kemptide; cAMP value printed with refs 27, 28 and Fig. 4a; read-out: apparent activation constant (EC50), RIα holoenzyme", "experimental": "(§4) Kinase activity was assayed spectrophotometrically, using the synthetic heptapeptide Kemptide as a substrate. […] Each data point represents the mean ± S.D. of two measurements."}, "PKA-IIα holoenzyme": {"target": "T3, PKA-IIα holoenzyme (Homo sapiens, UniProt P13861)", "T3 construct": "made in house; host or cells: E. coli BL21 (DE3) / BL21 (DE3) Codon Plus RIL", "T3 sequence (P13861 whole entry)": "as the sequence (P13861 whole entry) above", "test": "PKA holoenzyme activation, coupled spectrophotometric kinase assay with Kemptide (RIIα + Cα)", "format": "biochemical, human RIIα, murine Cα", "settings": "relative to cAMP", "experimental": "as §4"}, "[3]": {"target": "T4, GFP-hRIα expressed in COS-7 cells (Homo sapiens, UniProt P10644)", "T4 construct": "expressed in transfected cells; host or cells: COS-7", "T4 sequence (P10644 whole entry)": "as the sequence (P10644 whole entry) above", "test": "Co-localization with GFP-tagged RIα by confocal microscopy", "format": "cell-based", "settings": "500 μM, 30 minutes", "experimental": "(§5) The scale bar indicates 10 μm.\n(§6) Cloning of the R subunits into the expression vector hpGFP^2-N2 (PerkinElmer) was performed as described previously. […] Cellular imaging was performed on a confocal microscope (Leica) with a Plan apo 100× oil immersion objective (Leica)."}, "RIα subunit": {"target": "T5, RIα subunit (Homo sapiens, UniProt P10644)", "T5 construct": "made in house; host or cells: E. coli BL21 (DE3) Codon Plus RIL", "T5 sequence (P10644 whole entry)": "as above", "test": "Fluorescence polarization displacement of 8-Fluo-cAMP from RIα subunit", "format": "binding", "settings": "2.5 nM RIα, 1 nM 8-Fluo-cAMP", "experimental": "as §1, §2, §3"}, "PKA-IIβ holoenzyme": {"target": "T6, PKA-IIβ holoenzyme (Rattus norvegicus, UniProt P12369)", "T6 construct": "made in house; host or cells: E. coli BL21 (DE3) / BL21 (DE3) Codon Plus RIL", "T6 sequence (P12369 whole entry)": "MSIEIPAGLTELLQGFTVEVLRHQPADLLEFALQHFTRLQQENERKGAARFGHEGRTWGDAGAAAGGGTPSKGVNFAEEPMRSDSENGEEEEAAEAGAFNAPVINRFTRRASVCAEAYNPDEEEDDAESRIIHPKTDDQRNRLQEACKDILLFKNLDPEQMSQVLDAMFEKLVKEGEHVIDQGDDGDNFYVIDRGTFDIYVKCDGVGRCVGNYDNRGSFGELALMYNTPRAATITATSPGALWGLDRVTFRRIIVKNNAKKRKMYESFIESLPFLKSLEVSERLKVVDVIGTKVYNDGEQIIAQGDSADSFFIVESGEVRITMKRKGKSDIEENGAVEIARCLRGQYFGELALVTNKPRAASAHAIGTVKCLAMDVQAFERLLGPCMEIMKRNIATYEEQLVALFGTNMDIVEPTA", "test": "PKA holoenzyme activation, coupled spectrophotometric kinase assay with Kemptide (RIIβ + Cα)", "format": "biochemical, rat RIIβ, murine Cα", "settings": "relative to cAMP", "experimental": "as §4"}, "[4]": {"test": "Absorption and fluorescence spectra, relative quantum yield", "format": "physicochemical", "settings": "pH 7.0", "excerpt": "First we determined the photo-chemical properties of the free Pharos dye. The Stokes shift at pH 6.0, pH 7.0 and pH 7.4 was 42 nm resulting from an absorption maximum at 575 nm and an emission maximum at 617 nm (Fig. 1; […]\nFigure 1 Fluorescence absorption and emission spectra of the Pharos dye. The absorption maxima of the Pharos dye dissolved in buffer with the indicated pH values is at 575 nm, whereas the emission maxima are at 617 nm.\nTo calculate the relative quantum yield ϕ of the Pharos dye the absorption (500 nm to 640 nm) and fluorescence (λex = 553 nm, λem ranging from 558 nm to 800 nm) spectra of several Pharos dye concentrations (640 nM to 64.2 μM) were recorded using quinine sulfate as a standard. The determination of the relative quantum yield is generally accomplished by plotting the integrated fluorescence intensity versus the absorbance at the excitation wavelength (see Additional file 1, panel a). By comparing the slope of the linear regression (see Additional file 1, panel b) with that of a standard substance (quinine sulfate), the relative quantum yield of the Pharos dye was determined to be 30%.\nThe Pharos dye was diluted in 20 mM 2-(4-morpholino)-ethane sulfonic acid (MES) buffer adjusted to pH 6.0, pH 7.0 and pH 7.4, and all samples were degassed by bubbling nitrogen through the solution before measuring the absorption or fluorescence spectra. […]"}, "[5]": {"system": "HEK293 cells expressing H30 indicator", "test": "Uptake in living cells, Epac-based FRET cAMP indicator H30", "format": "cell-based", "settings": "100 μM IBMX", "excerpt": "Since FRET depends on the distance between the two fluorophores which in turn is ligand-dependent, this probe is used to estimate the intracellular level of cAMP or -analogs.\nWe can not exclude, however, that the Epac- based FRET sensor used for the measurements preferentially binds Sp-5,6-DCl-cBIMPS.\nThe ratio between the background subtracted emission intensities at 480 nm and 545 nm is plotted as a function of time. […] The insets show the yellow fluorescent protein fluorescence at the beginning of the experiments and the regions of interest where FRET ratios are calculated.\nFor transient expression of the H30 sensor, cells were seeded onto 24-mm diameter round glass coverslips, and transfections were performed at 50–70% confluence with FuGENE-6 transfection reagent (Roche). Imaging experiments were performed after about 24 h. Cells were maintained in Hepes-buffered Ringer-modified solution, containing 125 mM NaCl, 5 mM KCl, 1 mM Na3PO4, 1 mM MgS0_4, 5.5 mM glucose, 1 mM CaCl2, and 20 mM Hepes, pH 7.4, at room temperature and treated with 100 μM 3-Isobutyl-1-methylxanthine (IBMX, Sigma-Aldrich) 10 minutes before the experiments. […] FRET variations were measured as changes of the ratio between the background-subtracted fluorescence emission intensities at 480 nm and 545 nm, on excitation at 430 nm. […]"}, "RIIβ subunit": {"system": "RIIβ subunit", "test": "Fluorescence polarization displacement of 8-Fluo-cAMP from RIIβ subunit", "format": "binding, rat", "settings": "2.5 nM RIIβ, 1 nM 8-Fluo-cAMP", "experimental": "as §1, §2, §3"}, "[6]": {"target": "T7, GFP-hRIIα expressed in COS-7 cells (Homo sapiens, UniProt P13861)", "T7 construct": "expressed in transfected cells; host or cells: COS-7", "T7 sequence (P13861 whole entry)": "as the sequence (P13861 whole entry) above", "test": "Co-localization with GFP-tagged RIIα by confocal microscopy", "format": "cell-based", "settings": "500 μM, 30 minutes", "experimental": "as §5, §6"}, "PDE4D5": {"target": "PDE4D5 (Homo sapiens, UniProt Q08499)", "sequence (Q08499 1-745 isoform Q08499-6)": "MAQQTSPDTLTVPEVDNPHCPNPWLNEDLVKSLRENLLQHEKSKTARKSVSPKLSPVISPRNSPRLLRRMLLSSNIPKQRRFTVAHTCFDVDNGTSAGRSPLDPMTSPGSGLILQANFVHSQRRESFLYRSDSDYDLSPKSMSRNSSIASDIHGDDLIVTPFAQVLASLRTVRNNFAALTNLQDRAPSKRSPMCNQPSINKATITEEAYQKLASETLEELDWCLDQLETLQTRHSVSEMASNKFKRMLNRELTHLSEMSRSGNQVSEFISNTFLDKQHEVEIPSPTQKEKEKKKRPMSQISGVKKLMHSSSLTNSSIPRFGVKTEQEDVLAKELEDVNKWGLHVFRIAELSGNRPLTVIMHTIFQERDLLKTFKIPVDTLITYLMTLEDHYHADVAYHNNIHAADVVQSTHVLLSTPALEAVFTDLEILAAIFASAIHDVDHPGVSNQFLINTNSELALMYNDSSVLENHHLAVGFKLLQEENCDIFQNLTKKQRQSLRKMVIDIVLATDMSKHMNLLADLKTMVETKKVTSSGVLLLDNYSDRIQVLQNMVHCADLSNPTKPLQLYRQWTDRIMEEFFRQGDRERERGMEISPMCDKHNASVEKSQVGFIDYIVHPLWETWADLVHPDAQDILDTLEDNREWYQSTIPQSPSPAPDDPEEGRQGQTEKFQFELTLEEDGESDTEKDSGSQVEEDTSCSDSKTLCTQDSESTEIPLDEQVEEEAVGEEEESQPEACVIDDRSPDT", "test": "Stability towards phosphodiesterase, coupled spectrophotometric activity assay", "settings": "15 minutes of assay duration", "excerpt": "Absolutely stable analogs would arise from conjugating the Pharos fluorophore to phosphorothioate- modified structures such as Rp- or Sp-cAMPS (Rp- or Sp-diastereomer of adenosine 3'-5'-monophosphorothiorate)."}, "[7]": {"target": "T1, PKA-IIα sensor (RIIα-RLuc / GFP2-Cα) in COS-7 cells", "parameters": "expressed in transfected cells; host or cells: COS-7; method as in PMID 16524697", "settings": "living cells; read-out: EC50, holoenzyme dissociation by BRET; cited from earlier work"}}, "note": "Like-named read-outs stand apart in the source and are kept apart here."}
{"molecule": "8-[Pharos-575]adenosine -3',5'-cyclic monophosphate [8-[ϕ-575]-cAMP]", "values": [{"measurement": "inhibition of specific RIIα-Cα interaction (BRET titration)", "setting": "[1]; 600 μM, COS-7 cells", "value": "about 50%"}, {"measurement": "EC50", "setting": "[1]; read-out: concentration for half-maximal holoenzyme dissociation, added to intact COS-7 cells", "value": "~600", "unit": "µM"}, {"measurement": "times cAMP is more efficient in displacing 8-Fluo-cAMP compared to 8-[ϕ-575]-cAMP", "setting": "RIIα subunit", "value": "about 10 times"}, {"measurement": "increased lipophilicity compared to cAMP", "setting": "[2]; from logKw", "value": "more than 70 times"}, {"measurement": "logKw", "setting": "[2]; reversed phase HPLC, YMC RP-18", "value": 2.95}, {"measurement": "EC50", "setting": "PKA-Iα holoenzyme", "value": 0.15, "unit": "µM"}, {"measurement": "apparent activation constant (EC50) compared to cAMP, RIIα holoenzyme", "setting": "PKA-IIα holoenzyme", "value": "about two-fold increased"}, {"measurement": "co-localization with GFP-tagged RIα", "setting": "[3]", "value": "co-localization"}, {"measurement": "binding to the R subunit compared with cAMP (displacement of 8-Fluo-cAMP)", "setting": "RIα subunit", "value": "bound equally well"}, {"measurement": "apparent activation constant (EC50) compared to cAMP, RIIβ holoenzyme", "setting": "PKA-IIβ holoenzyme", "value": "about two-fold increased"}, {"measurement": "emission maximum", "setting": "[4]", "value": 605, "unit": "nm"}, {"measurement": "excitation maximum", "setting": "[4]", "value": 577, "unit": "nm"}, {"measurement": "concentration available to the intracellular fluorescent indicator", "setting": "[5]; 500 μM added for one hour, estimated from cAMP dose-FRET response curve", "value": "about 7 μM"}, {"measurement": "times cAMP is more efficient in displacing 8-Fluo-cAMP compared to 8-[ϕ-575]-cAMP", "setting": "RIIβ subunit", "value": "~5", "unit": "times"}, {"measurement": "co-localization with GFP-tagged RIIα", "setting": "[6]", "value": "co-localization"}, {"measurement": "degradation by PDE4D5", "setting": "PDE4D5", "value": "No degradation"}]}
{"molecule": "O[C@@H]1[C@@H]2OP(O)(=S)OC[C@H]2O[C@H]1n1cnc2cc(Cl)c(Cl)cc21", "note": "(single isomer, unassigned) [Sp-5,6-DCl-cBIMPS, 5,6-dichlorobenzimidazole riboside-3',5'-cyclic monophosphorothioate, Sp-isomer, reference compound]", "values": [{"measurement": "state of the fluorescent FRET probe after treatment", "setting": "[5]; 500 μM, after 40 minutes of treatment", "value": "almost completely saturated"}]}
{"molecule": "Nc1ncnc2c1nc(Br)n2[C@@H]1O[C@@H]2COP(=O)(O)O[C@H]2[C@H]1O", "note": "[8-Br-cAMP, 8-Bromoadenosine-3',5'-cyclic monophosphate]", "values": [{"measurement": "EC50", "setting": "[7]", "value": 1500, "unit": "µM"}]}
